In one assay the target is mTORC1 (mTOR/GbL/Raptor) (Homo sapiens, UniProt P42345). As to the kind of experiment: mTOR/GbL/Raptor (mTORC1) ELISA Assay. The assay is classed as biochemical. Conditions: 0.2 nM mTORC1, 10 μM ATP, 50 nM NHis-tagged 4E-BP1; phosphorylation of 4E-BP1; read-out: IC50. Here is the method:
mTOR/GbL/Raptor (mTORC1) ELISA Assay
The measurement of mTORC1 enzyme activity was performed in an ELISA assay format following the phosphorylation of 4E-BP1 protein. All experiments were performed in the 384-well format. Generally, 0.5 μL DMSO containing varying concentrations of the test compound was mixed with 15 μL enzyme solution. Kinase reactions were initiated with the addition of 15 μL of substrates-containing solution. The assay conditions were as follows; 0.2 nM mTORC1, 10 μM ATP and 50 nM NHis-tagged 4E-BP1 in 20 mM Hepes, pH 7.2, 1 mM DTT, 50 mM NaCl, 10 mM MnCl2, 0.02 mg/mL BSA, 0.01% CHAPS, 50 mM β-glycerophosphate. Following an incubation of 120 minutes at ambient temperature, 20 μL of the reaction volume was transferred to a Ni-Chelate-coated 384-well plate. The binding step of the 4E-BP1 protein proceeded for 60 minutes, followed by washing 4 times each with 50 μL of Tris-buffered saline solution (TBS). Anti-phospho-4E-BP1 rabbit-IgG (20 μL, 1:5000) in 5% BSA-TBST (0.2% Tween-20 in TBS) was added and further incubated for 60 minutes. Incubation with a secondary HRP-tagged anti-IgG was similarly performed after washing off the primary antibody (4 washes of 50 μL). Following the final wash step with TBST, 20 μL of SuperSignal ELISA Femto (Pierce Biotechnology) was added and the luminescence measured using an EnVision plate reader.
Background: ELISA stands for enzyme-linked immunosorbent assay.

For another assay, the target named is PI3Kα (Homo sapiens, UniProt P42336). As to the kind of experiment: PI3K Biochemical Assays (ATP consumption, luciferase-luciferin chemiluminescence). Particulars: PI3Kα 1.5 nM, ATP 1 μM, PIP2 10 μM; percent of ATP consumed. The procedure:
PI3Kα activity is measured as the percent of ATP consumed following the kinase reaction using luciferase-luciferin-coupled chemiluminescence. Reactions were conducted in 384-well white, medium binding microtiter plates (Greiner). Kinase reactions were initiated by combining test compounds, ATP, substrate (PIP2), and kinase in a 20 μL volume in a buffer solution. The standard PI3Kalpha assay buffer is composed 50 mM Tris, pH 7.5, 1 mM EGTA, 10 mM MgCl2, 1 mM DTT and 0.03% CHAPS. The standard assay concentrations for enzyme, ATP, and substrate are 1.5 nM, 1 μM, and 10 μM, respectively. The reaction mixture was incubated at ambient temperature for approximately 2 h. Following the kinase reaction, a 10 μL aliquot of luciferase-luciferin mix (Promega Kinase-Glo) was added and the chemiluminescence signal measured using a Victor2 plate reader (Perkin Elmer). Total ATP consumption was limited to 40-60% and IC50 values of control compounds correlate well with literature references. Substituting PI3Kα with PI3KIβ, […], or […], the inhibitory activity of the compounds for the other isoforms of I3K were measured.

For orientation: IC50 means the point on the concentration scale where inhibition reaches its midpoint.

PI3Kα, sequence (P42336 whole entry): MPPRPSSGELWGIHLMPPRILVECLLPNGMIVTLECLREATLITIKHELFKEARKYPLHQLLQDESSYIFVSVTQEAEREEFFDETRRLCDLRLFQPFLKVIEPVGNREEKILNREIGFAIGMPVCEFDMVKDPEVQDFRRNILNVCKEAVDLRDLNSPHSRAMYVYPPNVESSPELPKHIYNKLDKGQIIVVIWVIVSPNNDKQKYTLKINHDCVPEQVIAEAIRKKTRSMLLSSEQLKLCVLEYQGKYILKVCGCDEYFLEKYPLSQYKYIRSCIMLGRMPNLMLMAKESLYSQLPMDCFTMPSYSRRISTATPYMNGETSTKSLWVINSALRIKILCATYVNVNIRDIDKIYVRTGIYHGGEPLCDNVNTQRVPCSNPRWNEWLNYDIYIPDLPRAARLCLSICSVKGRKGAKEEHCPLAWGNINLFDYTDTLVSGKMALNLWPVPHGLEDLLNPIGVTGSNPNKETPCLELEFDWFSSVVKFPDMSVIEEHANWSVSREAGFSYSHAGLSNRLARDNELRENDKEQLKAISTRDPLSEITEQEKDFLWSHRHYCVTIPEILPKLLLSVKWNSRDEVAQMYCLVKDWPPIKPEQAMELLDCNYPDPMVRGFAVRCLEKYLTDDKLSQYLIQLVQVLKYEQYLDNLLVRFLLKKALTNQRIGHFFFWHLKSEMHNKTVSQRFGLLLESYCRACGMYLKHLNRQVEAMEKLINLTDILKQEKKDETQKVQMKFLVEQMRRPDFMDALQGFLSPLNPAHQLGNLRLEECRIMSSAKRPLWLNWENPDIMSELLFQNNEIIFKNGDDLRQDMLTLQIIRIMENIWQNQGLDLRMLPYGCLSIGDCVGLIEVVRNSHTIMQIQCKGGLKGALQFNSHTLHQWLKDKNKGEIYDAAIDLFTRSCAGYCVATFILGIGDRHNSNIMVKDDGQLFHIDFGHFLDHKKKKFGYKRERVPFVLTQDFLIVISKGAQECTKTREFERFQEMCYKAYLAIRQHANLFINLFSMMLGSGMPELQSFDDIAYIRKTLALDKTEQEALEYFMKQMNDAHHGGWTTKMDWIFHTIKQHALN
PI3Kα, sequence (P27986 whole entry partner): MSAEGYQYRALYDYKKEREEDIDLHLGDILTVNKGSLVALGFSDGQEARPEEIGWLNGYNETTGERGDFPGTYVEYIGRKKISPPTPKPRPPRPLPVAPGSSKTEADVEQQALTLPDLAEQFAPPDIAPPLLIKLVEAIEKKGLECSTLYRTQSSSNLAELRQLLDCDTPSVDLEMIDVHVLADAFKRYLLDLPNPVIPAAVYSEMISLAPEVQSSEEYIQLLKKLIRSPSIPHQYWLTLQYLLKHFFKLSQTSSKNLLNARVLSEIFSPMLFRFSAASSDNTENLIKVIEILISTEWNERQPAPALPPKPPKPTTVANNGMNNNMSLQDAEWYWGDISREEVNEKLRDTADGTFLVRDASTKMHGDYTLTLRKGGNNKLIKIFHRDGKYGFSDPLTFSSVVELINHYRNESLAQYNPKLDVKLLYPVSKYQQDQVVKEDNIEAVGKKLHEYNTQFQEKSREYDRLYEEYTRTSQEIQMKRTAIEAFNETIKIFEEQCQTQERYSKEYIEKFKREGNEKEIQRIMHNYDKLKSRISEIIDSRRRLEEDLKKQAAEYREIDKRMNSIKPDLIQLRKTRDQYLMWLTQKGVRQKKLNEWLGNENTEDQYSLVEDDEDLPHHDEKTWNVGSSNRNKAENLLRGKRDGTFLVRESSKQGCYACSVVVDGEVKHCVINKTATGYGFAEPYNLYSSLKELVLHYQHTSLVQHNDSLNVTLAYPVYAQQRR

With `COC(=O)Nc1nc2cc(-c3ccc4c(c3)CN(C(=O)N3CC[C@H](O)C[C@@H]3c3ccc(F)cc3)CCO4)ccc2[nH]1` (racemic) [Compound 17, (±)-methyl [5-(4-{[(2R,4S)-2-(4-fluorophenyl)-4-hydroxypiperidin-1-yl]carbonyl}-2,3,4,5-tetrahydro-1,4-benzoxazepin-7-yl)-1H-benzimidazol-2-yl]carbamate], the half-maximal inhibitory concentration (IC50) lay within 700 to 2600 nM at mTORC1 (mTOR/GbL/Raptor) and 75 to 200 nM against PI3Kα.
The matching figures for `Cc1nc2ccc(-c3ccc4c(c3)CN(C(=O)N3CC[C@@H]5CCCC[C@H]5C3)CCO4)cc2[nH]1` (racemic) [Compound 80, (±)-7-(2-methyl-1H-benzimidazol-6-yl)-4-[(4aS,8aR)-octahydroisoquinolin-2(1H)-ylcarbonyl]-2,3,4,5-tetrahydro-1,4-benzoxazepine]: 250 to 700 nM and 1000 to 3000 nM.
As to `CC1=C[C@H]2CN(C(=O)N3CCOc4ccc(-c5ccc6[nH]c(C)nc6c5)cc4C3)C[C@H]2C1` (racemic) [Compound 91, (±)-7-(2-methyl-1H-benzimidazol-5-yl)-4-{[(3aS,6aR)-5-methyl-3,3a,4,6a-tetrahydrocyclopenta[c]pyrrol-2(1H)-yl]carbonyl}-2,3,4,5-tetrahydro-1,4-benzoxazepine], the IC50 at mTORC1 (mTOR/GbL/Raptor) was 50 to 250 nM; on PI3Kα, 200 to 500 nM.
The matching figures for `Cc1nc2cc(-c3ccc4c(c3)CN(C(=O)N3CC[C@](C)(O)C[C@@H]3c3ccccc3)CCO4)ccc2[nH]1` (racemic) [Compound 134, (±)-(2R,4S)-4-methyl-1-{[7-(2-methyl-1H-benzimidazol-5-yl)-2,3-dihydro-1,4-benzoxazepin-4(5H)-yl]carbonyl}-2-phenylpiperidin-4-ol]: 700 to 2600 nM and 1000 to 3000 nM.
In the case of `Cc1nc2ccc(-c3ccc4c(c3)CN(C(=O)N3CC[C@H](O)C[C@@H]3c3ccc(F)cc3)CCO4)cc2[nH]1` (racemic) [Compound 136, (±)-(2R,4S)-2-(4-fluorophenyl)-1-{[7-(2-methyl-1H-benzimidazol-6-yl)-2,3-dihydro-1,4-benzoxazepin-4(5H)-yl]carbonyl}piperidin-4-ol], the 50% inhibitory concentration (IC50) at mTORC1 (mTOR/GbL/Raptor) lay within 50 to 250 nM; at PI3Kα, 500 to 1000 nM.
The matching figures for `Cc1nc2ccc(-c3ccc4c(c3)CN(C(=O)N3CC[C@H](O)C[C@@H]3c3ccc(F)c(F)c3)CCO4)cc2[nH]1` (racemic) [Compound 140, (±)-(2R,4S)-2-(3,4-difluorophenyl)-1-{[7-(2-methyl-1H-benzimidazol-6-yl)-2,3-dihydro-1,4-benzoxazepin-4(5H)-yl]carbonyl}piperidin-4-ol]: 50 to 250 nM and 200 to 500 nM.
Taken in the same sequence, the figures for `Cc1nc2ccc(-c3ccc4c(c3)CN(C(=O)N3CC[C@H](CF)C[C@@H]3c3ccc(F)c(F)c3)CCO4)cc2[nH]1` (racemic) [Compound 147, (±)-4-{[(2R,4S)-2-(3,4-difluorophenyl)-4-(fluoromethyl)piperidin-1-yl]carbonyl}-7-(2-methyl-1H-benzimidazol-6-yl)-2,3,4,5-tetrahydro-1,4-benzoxazepine] were 250 to 700 nM and 1000 to 3000 nM.
The matching figures for `Cc1nc2ccc(-c3ccc4c(c3)CN(C(=O)N3CC[C@@H](C#N)C[C@@H]3c3ccc(F)c(F)c3)CCO4)cc2[nH]1` (racemic) [Compound 148, (±)-(2R,4R)-2-(3,4-difluorophenyl)-1-{[7-(2-methyl-1H-benzimidazol-6-yl)-2,3-dihydro-1,4-benzoxazepin-4(5H)-yl]carbonyl}piperidine-4-carbonitrile]: 50 to 250 nM and 200 to 500 nM.
`COC(=O)Nc1nc2ccc(-c3ccc4c(c3)CN(C(=O)N3CCC(C)CC3)CCO4)cc2[nH]1` [Compound 2, methyl (6-{4-[(4-methylpiperidin-1-yl)carbonyl]-2,3,4,5-tetrahydro-1,4-benzoxazepin-7-yl}-1H-benzimidazol-2-yl)carbamate]: the IC50 at mTORC1 (mTOR/GbL/Raptor) fell in the range of 50 to 250 nM; at PI3Kα it was 200 to 500 nM.
Taken in the same sequence, the figures for `CC1CCN(C(=O)N2CCOc3ccc(-c4cnc(N)nc4)cc3C2)CC1` [Compound 3, 5-{4-[(4-methylpiperidin-1-yl)carbonyl]-2,3,4,5-tetrahydro-1,4-benzoxazepin-7-yl}pyrimidin-2-amine] were 700 to 2600 nM and 1000 to 3000 nM.
On to `CC(=O)Nc1ncc(-c2ccc3c(c2)CN(C(=O)N2CCC(C)CC2)CCO3)s1` [Compound 5, N-(5-{4-[(4-methylpiperidin-1-yl)carbonyl]-2,3,4,5-tetrahydro-1,4-benzoxazepin-7-yl}-1,3-thiazol-2-yl)acetamide], for which the IC50 lay in the range of 250 to 700 nM at mTORC1 (mTOR/GbL/Raptor) and 1000 to 3000 nM against PI3Kα.
`Cc1nc2ccc(-c3ccc4c(c3)CN(C(=O)N3CC[S+]([O-])CC3)CCO4)cc2[nH]1` [Compound 101, 7-(2-methyl-1H-benzimidazol-6-yl)-4-[(1-oxidothiomorpholin-4-yl)carbonyl]-2,3,4,5-tetrahydro-1,4-benzoxazepine] registered an IC50 on PI3Kα of 1000 to 3000 nM.
On the same count and under the same terms, under `Cc1nc2ccc(-c3ccc4c(c3)CN(C(=O)N3[C@@H]5CC[C@H]3C[C@@H](CO)C5)CCO4)cc2[nH]1` [Compound 112, (8-{[7-(2-methyl-1H-benzimidazol-6-yl)-2,3-dihydro-1,4-benzoxazepin-4(5H)-yl]carbonyl}-8-azabicyclo[3.2.1]oct-3-(endo)-yl)methanol] stands 200 to 500 nM; under `Cc1nc2ccc(-c3ccc4c(c3)CN(C(=O)N3CCCCC3c3cc(C(F)(F)F)cc(C(F)(F)F)c3)CCO4)cc2[nH]1` (centres unmarked) [Compound 115, 4-({2-[3,5-bis(trifluoromethyl)phenyl]piperidin-1-yl}carbonyl)-7-(2-methyl-1H-benzimidazol-6-yl)-2,3,4,5-tetrahydro-1,4-benzoxazepine], 1000 to 3000 nM; under `Cc1nc2ccc(-c3ccc4c(c3)CN(C(=O)N3CCC(O)(C(F)(F)F)CC3c3ccc(F)c(F)c3)CCO4)cc2[nH]1` (centres unmarked) [Compound 119, 2-(3,4-difluorophenyl)-1-{[7-(2-methyl-1H-benzimidazol-6-yl)-2,3-dihydro-1,4-benzoxazepin-4(5H)-yl]carbonyl}-4-(trifluoromethyl)piperidin-4-ol], 1000 to 3000 nM.
The same measure, in the same setting: as for `Cc1nc2ccc(-c3ccc4c(c3)CN(C(=O)N3CCOCC3)CCO4)cc2[nH]1` [Compound 132, 7-(2-methyl-1H-benzimidazol-6-yl)-4-(morpholin-4-ylcarbonyl)-2,3,4,5-tetrahydro-1,4-benzoxazepine], the figure is 500 to 1000 nM; as for `Cc1nc2ccc(-c3ccc4c(c3)CN(C(=O)N3CCN(C)CC3c3ccccc3)CCO4)cc2[nH]1` (centres unmarked) [Compound 144, 7-(2-methyl-1H-benzimidazol-6-yl)-4-[(4-methyl-2-phenylpiperazin-1-yl)carbonyl]-2,3,4,5-tetrahydro-1,4-benzoxazepine], 1000 to 3000 nM; as for `CCOC(=O)CN(Cc1ccccc1)C(=O)N1CCOc2ccc(-c3ccc4nc(C)[nH]c4c3)cc2C1` [Compound 151, ethyl N-{[7-(2-methyl-1H-benzimidazol-6-yl)-2,3-dihydro-1,4-benzoxazepin-4(5H)-yl]carbonyl}-N-(phenylmethyl)glycinate], 1000 to 3000 nM.
Take `Cc1nc2ccc(-c3ccc4c(c3)CN(C(=O)N3CCN(C(=O)c5ccco5)CC3)CCO4)cc2[nH]1` [Compound 158, 4-{[4-(furan-2-ylcarbonyl)piperazin-1-yl]carbonyl}-7-(2-methyl-1H-benzimidazol-6-yl)-2,3,4,5-tetrahydro-1,4-benzoxazepine]: the concentration for half-maximal inhibition (IC50) at PI3Kα was in the range of 1000 to 3000 nM.
Still for that read-out and setting: under `Cc1nc2ccc(-c3ccc4c(c3)CN(C(=O)N3CCN(c5ccc([N+](=O)[O-])cc5)CC3)CCO4)cc2[nH]1` [Compound 168, 7-(2-methyl-1H-benzimidazol-6-yl)-4-{[4-(4-nitrophenyl)piperazin-1-yl]carbonyl}-2,3,4,5-tetrahydro-1,4-benzoxazepine] stands 200 to 500 nM.
In turn, `CC(=O)c1ccc(N2CCN(C(=O)N3CCOc4ccc(-c5ccc6nc(C)[nH]c6c5)cc4C3)CC2)cc1` [Compound 169, 1-[4-(4-{[7-(2-methyl-1H-benzimidazol-6-yl)-2,3-dihydro-1,4-benzoxazepin-4(5H)-yl]carbonyl}piperazin-1-yl)phenyl]ethanone] displayed an IC50 at PI3Kα of 500 to 1000 nM.

Source of the values: patent US8637499B2, “Benzoxazepines as inhibitors of PI3K/mTOR and methods of their use and manufacture” (Exelixis, Inc., priority 2009, dated 2014).
